Measured values taken from ChEMBL document CHEMBL1147622, “Design and synthesis of indolo[2,3-a]quinolizin-7-one inhibitors of the ZipA-FtsZ interaction” (2004).

Legend:
Escherichia coli = test: Inhibition of ZipA FtsZ binding at 1 mM using an optical biosensor system
[1] = Antibacterial activity against Gram-positive, Gram-negative bacteria and Escherichia coli; type: functional

| Compound | inhibition (Escherichia coli) [%] | MIC [1] [µM] |
| --- | --- | --- |
| Cc1ccc(CNC(=O)CCCn2c3c(c4ccccc42)C(=O)CN2CCCCC32)o1 (stereo not given) | 23 | ≥ 200 |
| CS(=O)(=O)NCCCn1c2c(c3ccccc31)C(=O)CN1CCCCC21 (stereo not given) | 41 | ≥ 200 |
| O=C1CN2CCCCC2c2c1c1ccccc1n2CCCN1CC(Br)C1=O (stereo not given) | 38 | ≥ 200 |
| NCCCn1c2c(c3ccccc31)C(=O)CN1CCCCC21 (stereo not given) | 47 | ≥ 200 |
| N#CCCNC(=O)CCCn1c2c(c3ccccc31)C(=O)CN1CCCCC21 (stereo not given) | 39 | ≥ 200 |
| O=C1CN2CCCCC2c2[nH]c3ccccc3c21 (stereo not given) | 39 | ≥ 200 |
| O=C(NCCCn1c2c(c3ccccc31)C(=O)CN1CCCCC21)c1ccco1 (stereo not given) | 38 | ≥ 200 |
| O=C1CN2CCCCC2c2c1c1ccccc1n2CCCNS(=O)(=O)c1ccc(Cl)s1 (stereo not given) | 11 | ≥ 200 |
| O=C(Cc1ccc(F)cc1)NCCCn1c2c(c3ccccc31)C(=O)CN1CCCCC21 (stereo not given) | 33 | ≥ 200 |
| O=C(NCCCn1c2c(c3ccccc31)C(=O)CN1CCCCC21)c1ccc(Cl)c(Cl)c1 (stereo not given) | 8 | ≥ 200 |
| O=C(CCCn1c2c(c3ccccc31)C(=O)CN1CCCCC21)NCC(F)(F)F (stereo not given) | 21 | ≥ 200 |
| Cc1nnsc1S(=O)(=O)NCCCn1c2c(c3ccccc31)C(=O)CN1CCCCC21 (stereo not given) | 30 | ≥ 200 |
| CC(C)S(=O)(=O)NCCCn1c2c(c3ccccc31)C(=O)CN1CCCCC21 (stereo not given) | 46 | ≥ 200 |
| O=C(Cn1c2c(c3ccccc31)C(=O)CN1CCCCC21)NC1CCCC1 (stereo not given) | 31 | ≥ 200 |
| O=C1CN2CCCCC2c2c1c1ccccc1n2CCCNS(=O)(=O)c1cccs1 (stereo not given) | 25 | ≥ 200 |
| Cc1ccc(CNC(=O)CCn2c3c(c4ccccc42)C(=O)CN2CCCCC32)o1 (stereo not given) | 32 | ≥ 200 |
| O=C1CN2CCCCC2c2c1c1ccccc1n2CCCNS(=O)(=O)c1cc(Cl)sc1Cl (stereo not given) | 12 | ≥ 200 |
| CCCCS(=O)(=O)NCCCn1c2c(c3ccccc31)C(=O)CN1CCCCC21 (stereo not given) | 25 | ≥ 200 |
| N#CCCNC(=O)CCn1c2c(c3ccccc31)C(=O)CN1CCCCC21 (stereo not given) | 22 | ≥ 200 |
| O=C(CCCn1c2c(c3ccccc31)C(=O)CN1CCCCC21)NC1CCCC1 (stereo not given) | 24 | ≥ 200 |
